In one data set the test system is MDR S. aureus. The experiment in a line: microbe, parasite or virus in culture. The following applies: for Minimum inhibitory concentrations, MDR S. aureus: CLSI broth microdilution, CAMHB with 50 mg/L Ca2+, 10 mg/L Mg2+, 5 × 10^5 CFU/ml, 18 h 37 °C, triplicate, strain KCCM 40510. A digest of the protocol: (§1)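 CLSI broth microdilution used CAMHB supplemented with Ca (50 mg/L) and Mg (10 mg/L); runs in triplicate against meropenem/colistin controls.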

The next data set relates to MDR A. baumannii. Briefly: microbe, parasite or virus in culture. The following applies: for Minimum inhibitory concentrations, MDR A. baumannii: CLSI broth microdilution, CAMHB with 50 mg/L Ca2+, 10 mg/L Mg2+, 5 × 10^5 CFU/ml, 18 h 37 °C, triplicate, strain ATCC BAA-1605. A digest of the protocol: as §1
On the technique in general: Dilution methods test growth across graded concentrations, often in twofold steps.

For another data set, the system named is MDR P. aeruginosa. Briefly: microbe, parasite or virus in culture. The following applies: for Minimum inhibitory concentrations, MDR P. aeruginosa: CLSI broth microdilution, CAMHB with 50 mg/L Ca2+, 10 mg/L Mg2+, 5 × 10^5 CFU/ml, 18 h 37 °C, no visible turbidity, triplicate, strain CCARM 2180. In outline: as §1
Another data set relates to MDR E. faecalis. The experiment in a line: microbe, parasite or virus in culture. The conditions noted are these: for Minimum inhibitory concentrations, MDR E. faecalis: CLSI broth microdilution, CAMHB with 50 mg/L Ca2+, 10 mg/L Mg2+, 5 × 10^5 CFU/ml, 18 h 37 °C, triplicate, strain ATCC 51575. In outline:
as §1

In another data set the test system is human red blood cells. Briefly: Hemolytic activity. It is filed as cell-based. A digest of the protocol:
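Peptides (100 μM down to 0.78 μM) were incubated with 4% final human erythrocytes in PBS for 18 h at 37 °C. Supernatant absorbance at 540 nm after centrifugation was scaled to 1% Triton X-100 (100%) and no peptide (0%); melittin served as positive control; triplicate runs.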

Where [1] appears, read: CAMHB plus 0.2% bovine serum albumin and 0.01% acetic acid, values marked * in Table 2.

Values after ≈ are worked out from the molar mass of the structure shown. Read-outs that look alike come from different tables or passages of the source. Square brackets hold non-standard residues; d marks the D form. Ends that are not written are not given here. Peptide text beside a SMILES is read from it. Bounds are passed on as bounds.

As to “NH2 wM l l w i g l r k k r CONH2 [WCopW15, WCopW analog]”, the “Minimum inhibitory concentrations, MDR S. aureus” value in the data set with MDR S. aureus is 1.25 µM. Besides, the “Minimum inhibitory concentrations, MDR A. baumannii” value in the data set with MDR A. baumannii was determined as 1.25 µM. For the same compound, the “Minimum inhibitory concentrations, MDR P. aeruginosa” value in the data set on MDR P. aeruginosa was 10 µM. Moreover, in the data set on MDR E. faecalis, the “Minimum inhibitory concentrations, MDR E. faecalis” value was 2.5 µM. Also, in the data set on human red blood cells, the “Hemolysis percent, 25 μM” value was determined as 0.65%; the “Hemolysis percent, 50 μM” value is 1.16%; the “Hemolysis percent, 100 μM” value is listed as 4.04%.

Consider `CC[C@@H](C)[C@@H](NC(=O)[C@@H](Cc1c[nH]c2ccccc12)NC(=O)[C@@H](CC(C)C)NC(=O)[C@H](N)CC(C)C)C(=O)NCC(=O)N[C@H](CC(C)C)C(=O)N[C@H](CCCCN)C(=O)N[C@H](CCCCN)C(=O)N[C@H](CCCCN)C(=O)N[C@H](CCCCN)C(N)=O` [WCopW14] (H-[dL][dL][dW][dI]G[dL][dK][dK][dK][dK]-NH2), for which the “Minimum inhibitory concentrations, MDR S. aureus” value with MDR S. aureus was above 20 µM. For the same compound, the “Minimum inhibitory concentrations, MDR A. baumannii” value in the data set on MDR A. baumannii is above 20 µM. The “Minimum inhibitory concentrations, MDR P. aeruginosa” value with MDR P. aeruginosa was above 20 µM. In the data set with MDR E. faecalis, the “Minimum inhibitory concentrations, MDR E. faecalis” value is above 20 µM. The “Hemolysis percent, 25 μM” value in the data set with human red blood cells (red cells of human, 18 h, 25) is listed as 0.98%. The “Hemolysis percent, 50 μM” value with human red blood cells (red cells of human, 18 h, 50) stood at 1.06%. Also, in the data set with human red blood cells (red cells of human, 18 h, 100), the “Hemolysis percent, 100 μM” value was determined as 1.10%.

As to WLLLLWRRR-NH2 [AcWL-3], the “MIC in 0.2% albumin and 0.01% AcOH added CLSI standard condition, MDR S. aureus” value with MDR S. aureus (setting [1]) was 2.5 µM. Further, the “Minimum inhibitory concentrations, MDR S. aureus” value in the data set on MDR S. aureus is 5 µM. The “MIC in 0.2% albumin and 0.01% AcOH added CLSI standard condition, MDR A. baumannii” value in the data set with MDR A. baumannii (setting [1]) was found to be 0.63 µM. In addition, the “Minimum inhibitory concentrations, MDR A. baumannii” value with MDR A. baumannii was 2.5 µM. The “MIC in 0.2% albumin and 0.01% AcOH added CLSI standard condition, MDR P. aeruginosa” value in the data set on MDR P. aeruginosa (setting [1]) was above 20 µM. In addition, the “Minimum inhibitory concentrations, MDR P. aeruginosa” value in the data set with MDR P. aeruginosa was above 20 µM. Moreover, the “MIC in 0.2% albumin and 0.01% AcOH added CLSI standard condition, MDR E. faecalis” value in the data set with MDR E. faecalis (setting [1]) was 2.5 µM. In addition, in the data set on MDR E. faecalis, the “Minimum inhibitory concentrations, MDR E. faecalis” value worked out at 5 µM. Besides, in the data set on human red blood cells (red cells of human, 18 h, 25), the “Hemolysis percent, 25 μM” value is listed as 16.44 ±0.89%. For the same compound, the “Hemolysis percent, 50 μM” value with human red blood cells (red cells of human, 18 h, 50) came out at 19.80 ±0.76%. Moreover, the “Hemolysis percent, 100 μM” value in the data set on human red blood cells (red cells of human, 18 h, 100) is recorded as 36.71 ±3.91%.

Turning to `CC(C)C[C@@H](NC(=O)[C@H](N)Cc1c[nH]c2ccccc12)C(=O)N[C@H](CC(C)C)C(=O)N[C@H](Cc1c[nH]c2ccccc12)C(=O)N[C@H](C)C(=O)NCC(=O)N[C@H](C)C(=O)N[C@H](CCCNC(=N)N)C(=O)N[C@H](CCCCN)C(=O)N[C@H](CCCCN)C(=O)N[C@H](CCCNC(=N)N)C(N)=O` [WCopW21] (H-[dW][dL][dL][dW][dA]G[dA][dR][dK][dK][dR]-NH2), in the data set with MDR S. aureus, the “Minimum inhibitory concentrations, MDR S. aureus” value is above 20 µM. The “Minimum inhibitory concentrations, MDR A. baumannii” value with MDR A. baumannii was above 20 µM. Moreover, the “Minimum inhibitory concentrations, MDR P. aeruginosa” value in the data set with MDR P. aeruginosa is above 20 µM. Also, in the data set with MDR E. faecalis, the “Minimum inhibitory concentrations, MDR E. faecalis” value is above 20 µM. For the same compound, the “Hemolysis percent, 25 μM” value in the data set on human red blood cells (red cells of human, 18 h, 25) was 0.60%. Further, the “Hemolysis percent, 50 μM” value with human red blood cells (red cells of human, 18 h, 50) is given as 1.03%. Moreover, in the data set with human red blood cells (red cells of human, 18 h, 100), the “Hemolysis percent, 100 μM” value is listed as 1.74%.

On to `CC[C@@H](C)[C@@H](NC(=O)[C@@H](Cc1c[nH]c2ccccc12)NC(=O)[C@@H](CC(C)C)NC(=O)[C@@H](CC(C)C)NC(=O)[C@H](N)Cc1c[nH]c2ccccc12)C(=O)NCC(=O)N[C@H](CC(C)C)C(=O)N[C@H](CCCNC(=N)N)C(=O)N[C@H](CCCCN)C(=O)N[C@H](CCCCN)C(N)=O` [WCopW8] (H-[dW][dL][dL][dW][dI]G[dL][dR][dK][dK]-NH2), for which the “Minimum inhibitory concentrations, MDR S. aureus” value with MDR S. aureus is 2.5 µM (≈ 3.28 µg/mL). In addition, the “Minimum inhibitory concentrations, MDR A. baumannii” value with MDR A. baumannii came out at 5 µM (≈ 6.56 µg/mL). Besides, the “Minimum inhibitory concentrations, MDR P. aeruginosa” value with MDR P. aeruginosa was above 20 µM. In addition, the “Minimum inhibitory concentrations, MDR E. faecalis” value in the data set on MDR E. faecalis was 5 µM (≈ 6.56 µg/mL). Also, in the data set on human red blood cells (red cells of human, 18 h, 25), the “Hemolysis percent, 25 μM” value came to 3.85%. The “Hemolysis percent, 50 μM” value in the data set on human red blood cells (red cells of human, 18 h, 50) is on record as 8.51%. Besides, the “Hemolysis percent, 100 μM” value with human red blood cells (red cells of human, 18 h, 100) was 15.04%.

With `CC[C@@H](C)[C@@H](NC(=O)[C@@H](Cc1c[nH]c2ccccc12)NC(=O)[C@@H](CC(C)C)NC(=O)[C@H](N)CC(C)C)C(=O)NCC(=O)N[C@H](CC(C)C)C(=O)N[C@H](CCCNC(=N)N)C(=O)N[C@H](CCCCN)C(=O)N[C@H](CCCCN)C(=O)N[C@H](CCCNC(=N)N)C(N)=O` [WCopW13] (H-[dL][dL][dW][dI]G[dL][dR][dK][dK][dR]-NH2), in the data set with MDR S. aureus, the “Minimum inhibitory concentrations, MDR S. aureus” value is above 20 µM. Moreover, the “Minimum inhibitory concentrations, MDR A. baumannii” value in the data set on MDR A. baumannii worked out at 5 µM (≈ 6.41 µg/mL). The “Minimum inhibitory concentrations, MDR P. aeruginosa” value with MDR P. aeruginosa is above 20 µM. For the same compound, the “Minimum inhibitory concentrations, MDR E. faecalis” value in the data set on MDR E. faecalis is above 20 µM. Further, the “Hemolysis percent, 25 μM” value in the data set with human red blood cells (red cells of human, 18 h, 25) is 1.00%. In addition, in the data set on human red blood cells (red cells of human, 18 h, 50), the “Hemolysis percent, 50 μM” value came to 1.13%. For the same compound, the “Hemolysis percent, 100 μM” value with human red blood cells (red cells of human, 18 h, 100) was determined as 1.21%.

For the origin of these results see paper PMC9643456, “Matching amino acids membrane preference profile to improve activity of antimicrobial peptides” (Communications Biology, 2022).
